In PubChem BioAssay (NCI):
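Tested at 5 concentrations; 48 h exposure; 96-well plates; endpoints linearly interpolated, else capped at highest concentration. GI50 marks 50% less growth. TGI: total growth inhibition.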

Assays:
Experiment in all cases: DTP human tumour cell line panel, 48 h
COLO 205 colon = system: COLO 205 colon
MALME-3M melanoma = system: MALME-3M melanoma
CAKI-1 renal = system: CAKI-1 renal
DU-145 prostate = system: DU-145 prostate
HCC-2998 colon = system: HCC-2998 colon
NCI-H522 lung = system: NCI-H522 lung
LOX IMVI melanoma = system: LOX IMVI melanoma
UACC-62 melanoma = system: UACC-62 melanoma
OVCAR-4 ovarian = system: OVCAR-4 ovarian
NCI-H23 lung = system: NCI-H23 lung
OVCAR-3 ovarian = system: OVCAR-3 ovarian
A549 NSCLC = system: A549 NSCLC
SW-620 colon = system: SW-620 colon
786-0 renal = system: 786-0 renal
K-562 leukemia = system: K-562 leukemia
ACHN renal = system: ACHN renal
SK-MEL-2 melanoma = system: SK-MEL-2 melanoma
SK-OV-3 ovarian = system: SK-OV-3 ovarian
MDA-MB-435 = system: MDA-MB-435
HOP-62 NSCLC = system: HOP-62 NSCLC
CCRF-CEM leukemia = system: CCRF-CEM leukemia
HS 578T breast = system: HS 578T breast
TK-10 renal = system: TK-10 renal
NCI/ADR-RES ovarian = system: NCI/ADR-RES ovarian
UO-31 renal = system: UO-31 renal
SF-268 CNS = system: SF-268 CNS
NCI-H226 lung = system: NCI-H226 lung
KM12 colon = system: KM12 colon
M14 melanoma = system: M14 melanoma
MCF7 breast = system: MCF7 breast
SK-MEL-28 melanoma = system: SK-MEL-28 melanoma
SF-539 CNS = system: SF-539 CNS
HCT-116 colon = system: HCT-116 colon
A498 renal = system: A498 renal
UACC-257 melanoma = system: UACC-257 melanoma
SNB-75 CNS = system: SNB-75 CNS
SN12C renal = system: SN12C renal
HCT-15 colon = system: HCT-15 colon
SK-MEL-5 melanoma = system: SK-MEL-5 melanoma
HT29 colon = system: HT29 colon
IGROV1 ovarian = system: IGROV1 ovarian
SF-295 CNS = system: SF-295 CNS
T-47D breast = system: T-47D breast
SNB-19 CNS = system: SNB-19 CNS
PC-3 prostate = system: PC-3 prostate
MOLT-4 leukemia = system: MOLT-4 leukemia
OVCAR-5 ovarian = system: OVCAR-5 ovarian
MDA-MB-231 breast = system: MDA-MB-231 breast
U251 CNS = system: U251 CNS
EKVX NSCLC = system: EKVX NSCLC
BT-549 breast = system: BT-549 breast
RXF 393 renal = system: RXF 393 renal
NCI-H460 lung = system: NCI-H460 lung
HL-60(TB) leukemia = system: HL-60(TB) leukemia
RPMI-8226 leukemia = system: RPMI-8226 leukemia
HOP-92 NSCLC = system: HOP-92 NSCLC
OVCAR-8 ovarian = system: OVCAR-8 ovarian
SR leukemia = system: SR leukemia

`CCOC(=O)c1c(NC(=O)c2ccccc2)sc2c3c(ccc12)OCN(C)C3` showed a GI50 (COLO 205 colon) of 1.77 µM, a TGI (COLO 205 colon) of 3.7 µM and a GI50 (MALME-3M melanoma) of 1.78 µM. It also gave a TGI (MALME-3M melanoma) of 3.43 µM, a GI50 (CAKI-1 renal) of 1.59 µM and a TGI (CAKI-1 renal) of 2.99 µM. It also gave a GI50 (DU-145 prostate) of 1.67 µM, a TGI (DU-145 prostate) of 3.12 µM and a GI50 (HCC-2998 colon) of 1.03 µM. For the same compound, the TGI (HCC-2998 colon) was 2.35 µM, the GI50 (NCI-H522 lung) was 1.66 µM and the TGI (NCI-H522 lung) was 3.62 µM. It also gave a GI50 (LOX IMVI melanoma) of 1.62 µM, a TGI (LOX IMVI melanoma) of 3.03 µM and a GI50 (UACC-62 melanoma) of 1.7 µM. For the same compound, the TGI (UACC-62 melanoma) was 3.27 µM, the GI50 (OVCAR-4 ovarian) was 1.75 µM and the TGI (OVCAR-4 ovarian) was 3.13 µM. For the same compound, the GI50 (NCI-H23 lung) was 1.78 µM, the TGI (NCI-H23 lung) was 3.78 µM and the GI50 (OVCAR-3 ovarian) was 1.79 µM. The TGI (OVCAR-3 ovarian) was 3.26 µM, the GI50 (A549 NSCLC) was 1.73 µM and the TGI (A549 NSCLC) was 3.56 µM. The GI50 (SW-620 colon) was 1.63 µM, the TGI (SW-620 colon) was 3.32 µM and the GI50 (786-0 renal) was 1.79 µM. The TGI (786-0 renal) was 3.4 µM, the GI50 (K-562 leukemia) was 0.694 µM and the TGI (K-562 leukemia) was 5.11 µM. The GI50 (ACHN renal) was 1.58 µM, the TGI (ACHN renal) was 2.98 µM and the GI50 (SK-MEL-2 melanoma) was 2.07 µM. The TGI (SK-MEL-2 melanoma) was 4.02 µM, the GI50 (SK-OV-3 ovarian) was 2.16 µM and the TGI (SK-OV-3 ovarian) was 4.79 µM. For the same compound, the GI50 (MDA-MB-435) was 1.64 µM, the TGI (MDA-MB-435) was 3.02 µM and the GI50 (HOP-62 NSCLC) was 1.77 µM. The TGI (HOP-62 NSCLC) was 3.82 µM, the GI50 (CCRF-CEM leukemia) was 1.97 µM and the TGI (CCRF-CEM leukemia) was 5.75 µM. For the same compound, the GI50 (HS 578T breast) was 1.9 µM, the TGI (HS 578T breast) was 4.16 µM and the GI50 (TK-10 renal) was 1.81 µM. For the same compound, the TGI (TK-10 renal) was 3.54 µM, the GI50 (NCI/ADR-RES ovarian) was 1.59 µM and the TGI (NCI/ADR-RES ovarian) was 3.32 µM. It also gave a GI50 (UO-31 renal) of 1.36 µM, a TGI (UO-31 renal) of 2.74 µM and a GI50 (SF-268 CNS) of 1.77 µM. For the same compound, the TGI (SF-268 CNS) was 3.59 µM, the GI50 (NCI-H226 lung) was 1.9 µM and the TGI (NCI-H226 lung) was 4.14 µM. For the same compound, the GI50 (KM12 colon) was 1.75 µM, the TGI (KM12 colon) was 3.3 µM and the GI50 (M14 melanoma) was 1.74 µM. It also gave a TGI (M14 melanoma) of 3.29 µM, a GI50 (MCF7 breast) of 1.59 µM and a TGI (MCF7 breast) of 3.17 µM. It also gave a GI50 (SK-MEL-28 melanoma) of 1.71 µM, a TGI (SK-MEL-28 melanoma) of 3.15 µM and a GI50 (SF-539 CNS) of 1.63 µM. The TGI (SF-539 CNS) was 3.05 µM, the GI50 (HCT-116 colon) was 1.77 µM and the TGI (HCT-116 colon) was 3.27 µM. For the same compound, the GI50 (A498 renal) was 1.65 µM, the TGI (A498 renal) was 3.21 µM and the GI50 (UACC-257 melanoma) was 1.97 µM. For the same compound, the TGI (UACC-257 melanoma) was 3.85 µM, the GI50 (SNB-75 CNS) was 1.4 µM and the TGI (SNB-75 CNS) was 2.74 µM. The GI50 (SN12C renal) was 1.63 µM, the TGI (SN12C renal) was 3.22 µM and the GI50 (HCT-15 colon) was 1.2 µM. The TGI (HCT-15 colon) was 2.51 µM, the GI50 (SK-MEL-5 melanoma) was 1.74 µM and the TGI (SK-MEL-5 melanoma) was 3.14 µM. The GI50 (HT29 colon) was 2 µM, the TGI (HT29 colon) was 4.25 µM and the GI50 (IGROV1 ovarian) was 1.64 µM. The TGI (IGROV1 ovarian) was 3.18 µM, the GI50 (SF-295 CNS) was 1.74 µM and the TGI (SF-295 CNS) was 3.23 µM. For the same compound, the GI50 (T-47D breast) was 1.76 µM, the TGI (T-47D breast) was 3.78 µM and the GI50 (SNB-19 CNS) was 1.56 µM. For the same compound, the TGI (SNB-19 CNS) was 3.1 µM, the GI50 (PC-3 prostate) was 1.53 µM and the TGI (PC-3 prostate) was 3 µM. For the same compound, the GI50 (MOLT-4 leukemia) was 2.09 µM, the TGI (MOLT-4 leukemia) was 5.19 µM and the GI50 (OVCAR-5 ovarian) was 1.71 µM. The TGI (OVCAR-5 ovarian) was 3.16 µM, the GI50 (MDA-MB-231 breast) was 1.85 µM and the TGI (MDA-MB-231 breast) was 3.52 µM. The GI50 (U251 CNS) was 1.68 µM, the TGI (U251 CNS) was 3.4 µM and the GI50 (EKVX NSCLC) was 1.65 µM. For the same compound, the TGI (EKVX NSCLC) was 3.08 µM, the GI50 (BT-549 breast) was 5.76 µM and the TGI (BT-549 breast) was 19.5 µM. It also gave a GI50 (RXF 393 renal) of 1.57 µM, a TGI (RXF 393 renal) of 3.2 µM and a GI50 (NCI-H460 lung) of 1.87 µM. For the same compound, the TGI (NCI-H460 lung) was 3.53 µM, the GI50 (HL-60(TB) leukemia) was 1.81 µM and the TGI (HL-60(TB) leukemia) was 3.88 µM. It also gave a GI50 (RPMI-8226 leukemia) of 1.69 µM, a TGI (RPMI-8226 leukemia) of 3.87 µM and a GI50 (HOP-92 NSCLC) of 1.2 µM. It also gave a TGI (HOP-92 NSCLC) of 2.68 µM.
For `CCN(CC)CCCNc1ccc([N+](=O)[O-])c2nc3ccc(OC)cc3c(N)c12`, the TGI (COLO 205 colon) was 2.67 µM, the TGI (MALME-3M melanoma) was over 10 µM and the TGI (CAKI-1 renal) was over 10 µM. The TGI (DU-145 prostate) was over 4.96 µM, the TGI (NCI-H522 lung) was 4.69 µM and the TGI (LOX IMVI melanoma) was 3.37 µM. The TGI (UACC-62 melanoma) was over 10 µM, the TGI (OVCAR-4 ovarian) was 4.41 µM and the TGI (NCI-H23 lung) was 4.03 µM. It also gave a TGI (OVCAR-3 ovarian) of over 6.31 µM, a TGI (A549 NSCLC) of 3.61 µM and a TGI (SW-620 colon) of 3.11 µM. The TGI (786-0 renal) was 2.9 µM, the TGI (K-562 leukemia) was 4.79 µM and the TGI (ACHN renal) was over 10 µM. For the same compound, the TGI (SK-MEL-2 melanoma) was over 10 µM, the TGI (SK-OV-3 ovarian) was over 5.48 µM and the TGI (MDA-MB-435) was 3.12 µM. It also gave a TGI (HOP-62 NSCLC) of over 10 µM, a TGI (CCRF-CEM leukemia) of 5.71 µM and a TGI (HS 578T breast) of 2.68 µM. It also gave a TGI (TK-10 renal) of over 10 µM, a TGI (NCI/ADR-RES ovarian) of over 6.02 µM and a TGI (UO-31 renal) of over 10 µM. It also gave a TGI (SF-268 CNS) of 3.57 µM, a TGI (NCI-H226 lung) of over 10 µM and a TGI (KM12 colon) of 3.16 µM. For the same compound, the TGI (M14 melanoma) was over 6.1 µM, the TGI (MCF7 breast) was over 6.17 µM and the TGI (SK-MEL-28 melanoma) was over 10 µM. For the same compound, the TGI (SF-539 CNS) was 3.46 µM, the TGI (HCT-116 colon) was 2.49 µM and the TGI (A498 renal) was over 10 µM. The TGI (OVCAR-8 ovarian) was 5.6 µM, the TGI (UACC-257 melanoma) was over 10 µM and the TGI (SNB-75 CNS) was 3.65 µM. It also gave a TGI (SN12C renal) of 3.64 µM, a TGI (HCT-15 colon) of 3.15 µM and a TGI (SK-MEL-5 melanoma) of over 10 µM. It also gave a TGI (HT29 colon) of 3.95 µM, a TGI (IGROV1 ovarian) of over 5.08 µM and a TGI (SF-295 CNS) of 3.64 µM. The TGI (T-47D breast) was over 10 µM, the TGI (SNB-19 CNS) was over 6.29 µM and the TGI (PC-3 prostate) was 3.31 µM. It also gave a TGI (MOLT-4 leukemia) of 3.86 µM, a TGI (OVCAR-5 ovarian) of over 10 µM and a TGI (MDA-MB-231 breast) of 3.29 µM. The TGI (U251 CNS) was over 10 µM, the TGI (EKVX NSCLC) was over 10 µM and the TGI (BT-549 breast) was 2.9 µM. For the same compound, the TGI (RXF 393 renal) was over 10 µM, the TGI (NCI-H460 lung) was 3.32 µM and the TGI (SR leukemia) was 4.05 µM. It also gave a TGI (HL-60(TB) leukemia) of 4.03 µM, a TGI (RPMI-8226 leukemia) of 4.81 µM and a TGI (HOP-92 NSCLC) of over 10 µM.
